Measurements published in ChEMBL document CHEMBL1148821, “4-anilino-5-carboxamido-2-pyridone derivatives as noncompetitive inhibitors of mitogen-activated protein kinase kinase” (J Med Chem, 2007).

Tests used:
[1] = Toxicity in colon 26 tumor-bearing CD2F1 mouse assessed as lethality at 100 mg/kg; assay type: organism-based; parameters: dose 100 mg/kg; conditions: in vivo, read-out: Activity
[2] = Toxicity in colon 26 tumor-bearing CD2F1 mouse assessed as lethality at 200 mg/kg; assay type: organism-based; parameters: dose 200 mg/kg; conditions: in vivo, read-out: Activity

With `Cn1cc(C(N)=O)c(Nc2ccc(I)cc2F)cc1=O` the mortality [1] was 40% and the mortality [2] was 100%.
